Results on 24 molecules are retold here after patent publication US8802664B2 (Bioproject, priority 2010, dated 2014).

Structures are written as SMILES. Structures can show the parent of a compound that is named as a salt.

`CN1CCC(OC(c2cccc(-c3ccc(F)cc3)c2)c2nc3ccccc3[nH]2)CC1` (stereo not drawn) (as salt: oxalate) [Example 115, 2-[(4′-fluorobiphenyl-3-yl)(1-methylpiperidin-4-yloxy)methyl]-1H-benzimidazole] gave a melting point of 100 °C.
For `CSc1cccc(-c2cccc(C(OC3CCN(C)CC3)c3nc4ccccc4[nH]3)c2)c1` (stereo not drawn) (as salt: oxalate) [Example 116, 2-[(1-methylpiperidin-4-yloxy)(3′-methylsulfanylbiphenyl-3-yl)methyl]-1H-benzimidazole], the melting point is 80 °C.
As to `CN1CCC(OC(c2cccc(-c3ccccc3Cl)c2)c2nc3ccccc3[nH]2)CC1` (stereo not drawn) (as salt: oxalate) [Example 121, 2-[(2′-Chlorobiphenyl-3-yl)(1-methylpiperidin-4-yloxy)methyl]-1H-benzimidazole], the melting point is 130 °C.
`CN1CCC(OC(c2cccc(-c3ccc(Cl)c(Cl)c3)c2)c2nc3ccccc3[nH]2)CC1` (stereo not drawn) (as salt: oxalate) [Example 122, 2-[(3′,4′-dichlorobiphenyl-3-yl)(1-methylpiperidin-4-yloxy)methyl]-1H-benzimidazole] displayed a melting point of 150 °C.
`COc1cccc(COc2cccc(C(NC3CCN(C)CC3)c3nc4ccccc4[nH]3)c2)c1` (stereo not drawn) (as salt: oxalate) [Example 125, {(1H-benzimidazol-2-yl)[3-(3-methoxybenzyloxy)phenyl]methyl}(1-methylpiperidin-4-yl)amine]: the melting point stood at 135 °C.
As to `CN1CCC(OC(c2cccc(-c3ccccc3CO)c2)c2nc3ccccc3s2)CC1` (stereo not drawn) (as salt: oxalate) [Example 127, {3′-[benzothiazol-2-yl(1-methylpiperidin-4-yloxy)methyl]biphenyl-2-yl}methanol], the melting point was in the range of 206 to 207 °C.
As to `Cc1ccccc1COc1cccc(C(NC2CCN(C)CC2)c2nc3ccccc3[nH]2)c1` (stereo not drawn) (as salt: oxalate) [Example 129, {(1H-benzimidazol-2-yl)[3-(2-methylbenzyloxy)phenyl]methyl}(1-methylpiperidin-4-yl)amine], the melting point was determined as 121 °C.
The value for `CN1CCC(OC(c2cccc(-n3cccn3)c2)c2nc3ccccc3s2)CC1` (stereo not drawn) (as salt: oxalate) [Example 147, 2-[(1-methylpiperidin-4-yloxy)(3-pyrazol-1-ylphenyl)methyl]benzothiazole] was 89 °C; that for `CN1CCC(NC(c2cccc(OCc3cc(F)ccc3F)c2)c2nc3ccccc3[nH]2)CC1` (stereo not drawn) (as salt: oxalate) [Example 149, {(1H-benzimidazol-2-yl)[3-(2,5-difluoro-benzyloxy)phenyl]methyl}(1-methylpiperidin-4-yl)amine] was 159 °C; that for `CCc1cccc(C(OC2CCN(C)CC2)c2nc3ccccc3s2)c1` (stereo not drawn) (as salt: oxalate) [Example 152, 2-[(3-ethylphenyl)(1-methylpiperidin-4-yloxy)methyl]benzothiazole] was 123 °C.
The molecule `CN1CCC(OC(c2cccc(OCc3cccc(F)c3F)c2)c2nc3ccccc3s2)CC1` (stereo not drawn) (as salt: oxalate) [Example 161, 2-[[3-(2,3-difluorobenzyloxy)phenyl](1-methylpiperidin-4-yloxy)methyl]benzothiazole] had a melting point of 98 °C.
`CN1CCC(OC(c2cccc(OCCF)c2)c2nc3ccccc3s2)CC1` (stereo not drawn) (as salt: oxalate) [Example 163, 2-[[3-(2-fluoroethoxy)phenyl](1-methylpiperidin-4-yloxy)methyl]benzothiazole] had a melting point of 147 °C.
The value for `C=CCCCOc1cccc(C(OC2CCN(C)CC2)c2nc3ccccc3s2)c1` (stereo not drawn) (as salt: oxalate) [Example 168, 2-[(1-methylpiperidin-4-yloxy)(3-pent-4-enyloxy-phenyl)methyl]benzothiazole] was 75 °C; that for `CN1CCC(OC(c2cccc(OCCCC(F)(F)F)c2)c2nc3ccccc3s2)CC1` (stereo not drawn) (as salt: oxalate) [Example 169, 2-{(1-methylpiperidin-4-yloxy)[3-(4,4,4-trifluoro-butoxy)phenyl]methyl}benzothiazole] was 115 °C.
In turn, `CN1CCC(OC(c2cccc(OCc3cccc(F)c3)c2)c2nc3ccccc3s2)CC1` (stereo not drawn) (as salt: oxalate) [Example 171, 2-[[3-(3-fluorobenzyloxy)phenyl](1-methylpiperidin-4-yloxy)methyl]benzothiazole] showed a melting point of 65 °C.
For the molecule `CN1CCC(NC(c2cccc(OCCCC3(C)OCCO3)c2)c2nc3ccccc3[nH]2)CC1` (stereo not drawn) (as salt: oxalate) [Example 174, ((1H-benzimidazol-2-yl)-{3-[3-(2-methyl-[1,3]dioxolan-2-yl)-propoxy]phenyl}methyl)(1-methylpiperidin-4-yl)amine], the melting point is 120 °C.
For `CN1CCC(OC(c2cccc(OCCCF)c2)c2nc3ccccc3s2)CC1` (stereo not drawn) (as salt: oxalate) [Example 176, 2-[[3-(3-fluoropropoxy)phenyl](1-methylpiperidin-4-yloxy)methyl]benzothiazole], the melting point was determined as 72 °C.
The molecule `CN1CCC(NC(c2cccc(OCCF)c2)c2nc3ccccc3[nH]2)CC1` (stereo not drawn) (as salt: oxalate) [Example 180, {(1H-benzimidazol-2-yl)[3-(2-fluoro-ethoxy)phenyl]methyl}(1-methylpiperidin-4-yl)amine] showed a melting point of 155 °C.
`CN1CCC(NC(c2cccc(OCCC3=CCC4CC3C4(C)C)c2)c2nc3ccccc3[nH]2)CC1` (stereo not drawn) (as salt: oxalate) [Example 181, ((1H-benzimidazol-2-yl)-{3-[2-(6,6-dimethyl-bicyclo[3.1.1]hept-2-en-2-yl)ethoxy]phenyl}methyl)(1-methylpiperidin-4-yl)amine] showed a melting point of 123 °C.
For `COc1cccc(COc2cccc(C(OC3CCN(C)CC3)c3nc4ccccc4s3)c2)c1` (stereo not drawn) (as salt: oxalate) [Example 185, 2-[[3-(3-methoxybenzyloxy)phenyl](1-methylpiperidin-4-yloxy)methyl]benzothiazole], the melting point is 77 °C.
Take `CC(=O)CCCOc1cccc(C(OC2CCN(C)CC2)c2nc3ccccc3s2)c1` (stereo not drawn) (as salt: oxalate) [Example 186, 5-{3-[benzothiazol-2-yl(1-methylpiperidin-4-yloxy)methyl]phenoxy}pentan-2-one]: the melting point is 72 °C.
In turn, `CN1CCC(OC(c2cccc(OCc3cccc(C(F)(F)F)c3)c2)c2nc3ccccc3s2)CC1` (stereo not drawn) (as salt: oxalate) [Example 187, 2-{(1-methylpiperidin-4-yloxy)[3-(3-trifluoromethyl-benzyloxy)phenyl]methyl}benzothiazole] yielded a melting point of 80 °C.
With `CN1CCC(OC(c2cccc(C#N)c2)c2nc3ccccc3s2)CC1` (stereo not drawn) (as salt: oxalate) [Example 197, 3-[benzothiazol-2-yl(1-methylpiperidin-4-yloxy)methyl]benzonitrile], the melting point amounted to 75 °C.
Take `COC(=O)c1cccc(C(OC2CCN(C)CC2)c2nc3ccccc3s2)c1` (stereo not drawn) (as salt: oxalate) [Example 199, 3-[benzothiazol-2-yl(1-methylpiperidin-4-yloxy)methyl]benzoic acid methyl ester]: the melting point was determined as 93 °C.

For orientation: melting point means the temperature, or range, at which the solid turns liquid.
